Laboratory results as given in patent EP1214345B1, “AGENTS FOR TREATING HUMAN DISEASES, ESPECIALLY FOR TREATING TUMORS SUCH AS COLONIC CANCERS AND MELANOMAS OR FOR REGENERATING TISSUE AND PROMOTING HAIR GROWTH” (MAX-DELBRÜCK-CENTRUM FÜR MOLEKULARE MEDIZIN, priority 1999, dated 2001).

These compounds were tested against T1, Komplexbildung von β-Catenin und LEF-1 (Homo sapiens, UniProt P35222) (assay: ELISA for inhibition of complex formation of β-Catenin and LEF-1 (recombinant His-tagged proteins, detection with antibody PA2)). Details: recombinant LEF-1 adsorbed, 50-100 ng β-Catenin, 10% DMSO final, substances 1 µM to 10 mM, read-out: IC50 Hemmung der Komplexbildung von β-Catenin und LEF/TCF.
T1 construct: made in house
T1 sequence (P35222 1-781): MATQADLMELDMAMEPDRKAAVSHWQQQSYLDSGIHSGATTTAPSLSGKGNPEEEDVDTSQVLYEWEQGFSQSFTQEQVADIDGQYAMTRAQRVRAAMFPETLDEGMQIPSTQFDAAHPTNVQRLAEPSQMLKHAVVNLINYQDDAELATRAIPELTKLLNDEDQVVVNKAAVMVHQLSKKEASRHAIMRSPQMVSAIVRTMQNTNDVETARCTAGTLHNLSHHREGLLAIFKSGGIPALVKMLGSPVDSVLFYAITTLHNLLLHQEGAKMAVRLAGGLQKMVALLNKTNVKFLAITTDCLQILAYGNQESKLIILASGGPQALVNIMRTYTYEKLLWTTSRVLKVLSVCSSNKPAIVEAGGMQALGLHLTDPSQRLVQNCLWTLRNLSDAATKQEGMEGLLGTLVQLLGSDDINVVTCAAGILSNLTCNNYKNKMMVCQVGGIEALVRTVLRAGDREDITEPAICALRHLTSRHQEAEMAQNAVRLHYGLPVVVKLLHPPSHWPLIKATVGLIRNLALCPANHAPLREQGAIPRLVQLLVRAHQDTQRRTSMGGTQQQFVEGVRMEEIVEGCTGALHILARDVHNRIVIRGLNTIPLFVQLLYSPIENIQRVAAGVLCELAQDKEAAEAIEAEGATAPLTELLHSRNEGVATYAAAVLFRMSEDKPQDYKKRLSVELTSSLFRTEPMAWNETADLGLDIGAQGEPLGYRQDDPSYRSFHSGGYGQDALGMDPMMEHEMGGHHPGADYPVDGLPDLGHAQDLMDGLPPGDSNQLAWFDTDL
Assay type: binding
From the text: Im Einzelnen wurden folgende Untersuchungen durchgerührt: • 1. Identifizierung von separaten, essentiellen Bindungsstellen von β-Catenin für die Interaktion mit LEF-1/TCF-4, mit den 20 und 15 Aminosäure-Repeats von APC oder Conductin/Axin Basierend auf der Röntgen-Kristall-Strukturanalyse der Armadillo-Domäne von β-Catenin (Huber et al., 1997) wurden ausgewählte basische und aromatische Aminosäure-Reste durch Alanin-Reste substituiert und die Punktmutanten auf Interaktion mit den Bindungspartnern von β-Catenin im Hefe-2-Hybrid-System analysiert (Abb. 1). Die Mutationen, welche spezifische Interaktionen blockieren, bilden Cluster in separaten Subregionen der Domäne. Sie markieren die essentiellen Kontaktpunkte in den spezifischen Bindungsstellen für die Interaktion mit LEF/TCF (Lys 435, Arg 469, His 470, Lys 508, Arg 515), mit den 20 Aminosäure-Repeats von APC (Trp 383, Lys 345), mit den 15 Aminosäure-Repeats von APC (Arg 386), oder mit Conductin (Phe 253, His 260, Lys 292). Die erweiterten Interaktionsstellen sind der Abb 1 zu entnehmen. • 2. Analyse der Moleküloberfläche von β-Catenin im Bereich der essentiellen Bindungsstelle für LEF/TCF Ausgehend von den Daten zur Röntgenkristallstruktur von β-Catenin wurde mit den Programmen Grasp und LUDI (MSI) die Moleküloberfläche im Bereich der Bindungsstelle berechnet. Es ist hierdurch gelungen eine hydrophobe Tasche zu identifizieren (Abb.2), die von den folgenden Aminosäuren umrandet ist: Val 358, Met 363, Ala 391, Ala 392, Thr 393, Lys 394, Gln 395, Met 398, Leu 401, Leu 402, Ile 423, Asn 426, Leu 427, Thr 428, Cys 429, Asn 430, Asn 431, Asn 434, Met 437, Val 438. Diese Tasche lokalisiert in engster Nachbarschaft zu der essentiellen Bindungsstelle für LEF/TCF. Sie ist von großer Bedeutung für die Computer-gestützte Durchmusterung von Substanzbibliotheken zur Selektion von Molekülen, die in dieser Tasche binden. Die Idee primär hydrophobe Wechselwirkungen in der Tasche zum Ausgangspunkt zu wählen, hat den energetischen Vorteil, das die Substanzen nicht mit der Hydrathülle der geladenen Aminosäure-Reste der Oberfläche kompetieren müssen. Diese Substanzen stellen somit nach gezielter Modifikation potente Therapeutika zur Behandlung von Tumoren dar, da die Interaktion von LEF/TCF mit β-Catenin ein frühes Ereignis zur Entstehung von Tumoren darstellt. Sie wurden experimentell auf ihre Fähigkeit zur Hemmung der onkogenen Interaktion getestet (ELISA) und sollen modifiziert werden. Das molekulare Modellieren der Substanzen in der Tasche basiert auf der Idee, die Wechselwirkungen in der Tasche selbst zu stabilisieren und zusätzliche Kontakte zu den essentiellen Aminosäure-Resten der LEF/TCF-Bindungsstelle zu schaffen. Durch diese Strategie sollen die Substanzen in ihrer Wirkung optimiert werden. • 3. Identifizierung von Substanzen die in der hydrophoben Tasche binden Es wurden Computer-gestützt Substanzbibliotheken durchmustert und deren Moleküle auf stabilisierende Wechselwirkungen in der hydrophoben Tasche ausgewählt. Die ausgewählten Substanzen wurden auf Hemmung der Komplexbildung von β-Catenin und LEF-1 im ELISA experimentell getestet. […] Diese Kernstruktur besteht aus einem aromatischem Ring (beim Cefamandole am Kohlenstoffatom 17, Numerierung siehe "Positiv-Liste")), einer organischen Komponente, die der Struktur des Ala-Ala Dipeptides ähnelt, und einem β-Lactam- und Thiazolring. Mit dem aromatischen Ring wurde die Substanz in der beschriebenen hydrophoben Tasche eingepaßt. […]

Row | IC50 [µM] | SMILES
1 | 50 to 100 | NC(=O)c1cc[n+](CC2=C(C(=O)O)N3C(=O)[C@@H](NC(=O)[C@@H](c4ccccc4)S(=O)(=O)[O-])[C@H]3SC2)cc1 [Cefsulodine]
2 | 25 | Cn1nnnc1SCC1=C(C(=O)O)N2C(=O)[C@@H](NC(=O)[C@H](O)c3ccccc3)[C@H]2SC1 [Cefamandole]

Second part, the compound before the results:

Row | SMILES | IC50 [µM]
3 | CC1=C(C(=O)O)N2C(=O)[C@@H](NC(=O)[C@H](N)c3ccc(O)cc3)[C@H]2SC1 [Cefadroxil] | 50 to 100
4 | Cn1nnnc1SCC1=C(C(=O)O)N2C(=O)[C@@H](NC(=O)[C@H](OC=O)c3ccccc3)[C@H]2SC1 [Cefamandole-Nafate] | 50 to 100
5 | CCCCCCCCCCCCCCCCCC(=O)OC[C@H]1OC(O)[C@H](NC(C)=O)[C@@H](O[C@H](C)C(=O)N[C@@H](C)C(=O)N[C@H](CCC(=O)O)C(N)=O)[C@@H]1O (stereo partly drawn) [AC-(6-O-Stearoyl)-Muramyl-Ala-D-Isoglutamine] | 100
